The results in this text go back to ChEMBL document CHEMBL1126461, “Biologically active heparin-like fragments with a non-glycosaminoglycan structure. Part 3 : o-alkylated-o-sulphated pentasaccharides” (Bioorg Med Chem Lett, 1992).

The target of this experiment is Coagulation factor X (Homo sapiens) (UniProt P00742). Briefly: Compound was evaluated for the inhibition of anti-thrombin III (AT III)-mediated coagulation proteinase factor Xa.
Coagulation factor X (Homo sapiens), sequence (P00742 41-179 limits assumed): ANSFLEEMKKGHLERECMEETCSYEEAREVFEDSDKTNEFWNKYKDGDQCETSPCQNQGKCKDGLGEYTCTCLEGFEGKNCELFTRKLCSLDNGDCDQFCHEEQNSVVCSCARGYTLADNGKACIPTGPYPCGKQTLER
Coagulation factor X (Homo sapiens), sequence (P00742 235-488 limits assumed): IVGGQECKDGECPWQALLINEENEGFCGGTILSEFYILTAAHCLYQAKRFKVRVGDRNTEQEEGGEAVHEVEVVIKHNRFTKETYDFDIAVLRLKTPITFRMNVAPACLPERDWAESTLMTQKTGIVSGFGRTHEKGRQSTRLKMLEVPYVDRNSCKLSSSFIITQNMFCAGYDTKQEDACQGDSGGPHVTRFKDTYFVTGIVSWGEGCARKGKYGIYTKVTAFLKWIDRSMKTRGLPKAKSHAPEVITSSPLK
Consider `CO[C@H]1O[C@H](COS(=O)(=O)O)[C@@H](O[C@@H]2O[C@@H](C(=O)O)[C@@H](O[C@@H]3O[C@H](COS(=O)(=O)O)[C@@H](O[C@@H]4O[C@H](C(=O)O)[C@@H](O[C@@H]5O[C@H](COS(=O)(=O)O)[C@@H](OC)[C@H](OC)[C@H]5OS(=O)(=O)O)[C@H](OC)[C@H]4OC)[C@H](OS(=O)(=O)O)[C@H]3OS(=O)(=O)O)[C@H](OC)[C@H]2OS(=O)(=O)O)[C@H](OS(=O)(=O)O)[C@H]1OS(=O)(=O)O`, for which the Activity was determined as 1320 U mg-1. The value for `CCCCO[C@@H]1[C@@H](OS(=O)(=O)O)[C@H](O[C@H]2[C@H](OC)[C@@H](OC)[C@H](O[C@H]3[C@H](OS(=O)(=O)O)[C@@H](OS(=O)(=O)O)[C@H](O[C@H]4[C@H](OC)[C@@H](OS(=O)(=O)O)[C@H](O[C@H]5[C@H](OS(=O)(=O)O)[C@@H](OS(=O)(=O)O)[C@@H](OC)O[C@@H]5COS(=O)(=O)O)O[C@H]4C(=O)O)O[C@@H]3COS(=O)(=O)O)O[C@@H]2C(=O)O)O[C@H](COS(=O)(=O)O)[C@H]1OCCCC` was 1500 U mg-1; that for `CCCCCCCCO[C@@H]1[C@@H](OS(=O)(=O)O)[C@H](O[C@H]2[C@H](OS(=O)(=O)O)[C@@H](OS(=O)(=O)O)[C@@H](OC)O[C@@H]2COS(=O)(=O)O)O[C@@H](C(=O)O)[C@H]1O[C@@H]1O[C@H](COS(=O)(=O)O)[C@@H](O[C@@H]2O[C@H](C(=O)O)[C@@H](O[C@@H]3O[C@H](COS(=O)(=O)O)[C@@H](OC)[C@H](OC)[C@H]3OS(=O)(=O)O)[C@H](OCCCC)[C@H]2OCCCC)[C@H](OS(=O)(=O)O)[C@H]1OS(=O)(=O)O` was 700 U mg-1.

Regarding `CCCCO[C@@H]1[C@@H](OS(=O)(=O)O)[C@H](O[C@H]2[C@H](OS(=O)(=O)O)[C@@H](OS(=O)(=O)O)[C@@H](OC)O[C@@H]2COS(=O)(=O)O)O[C@@H](C(=O)O)[C@H]1O[C@@H]1O[C@H](COS(=O)(=O)O)[C@@H](O[C@@H]2O[C@H](C(=O)O)[C@@H](O[C@@H]3O[C@H](COS(=O)(=O)O)[C@@H](OC)[C@H](OC)[C@H]3OS(=O)(=O)O)[C@H](OC)[C@H]2OC)[C@H](OS(=O)(=O)O)[C@H]1OS(=O)(=O)O`, the Activity was 994 U mg-1. The value for `CCCCO[C@@H]1[C@@H](OCCCC)[C@H](O[C@H]2[C@H](OS(=O)(=O)O)[C@@H](OS(=O)(=O)O)[C@H](O[C@H]3[C@H](OC)[C@@H](OS(=O)(=O)O)[C@H](O[C@H]4[C@H](OS(=O)(=O)O)[C@@H](OS(=O)(=O)O)[C@@H](OC)O[C@@H]4COS(=O)(=O)O)O[C@H]3C(=O)O)O[C@@H]2COS(=O)(=O)O)O[C@H](C(=O)O)[C@H]1O[C@@H]1O[C@H](COS(=O)(=O)O)[C@@H](OC)[C@H](OC)[C@H]1OS(=O)(=O)O` was 1100 U mg-1. The value for `CO[C@H]1O[C@H](COS(=O)(=O)O)[C@@H](O[C@@H]2O[C@@H](C(=O)O)[C@@H](O[C@@H]3O[C@H](COS(=O)(=O)O)[C@@H](O[C@@H]4O[C@H](C(=O)O)[C@@H](O[C@@H]5O[C@H](COS(=O)(=O)O)[C@@H](OC)[C@H](OC)[C@H]5OS(=O)(=O)O)[C@H](OC)[C@H]4OC)[C@H](OS(=O)(=O)O)[C@H]3OS(=O)(=O)O)[C@H](OCCCc3ccccc3)[C@H]2OS(=O)(=O)O)[C@H](OS(=O)(=O)O)[C@H]1OS(=O)(=O)O` was 434 U mg-1. The value for `CO[C@H]1O[C@H](COS(=O)(=O)O)[C@@H](O[C@@H]2O[C@@H](C(=O)O)[C@@H](O[C@@H]3O[C@H](COS(=O)(=O)O)[C@@H](O[C@@H]4O[C@H](C(=O)O)[C@@H](O[C@@H]5O[C@H](COS(=O)(=O)O)[C@@H](O)[C@H](O)[C@H]5NS(=O)(=O)O)[C@H](O)[C@H]4O)[C@H](OS(=O)(=O)O)[C@H]3NS(=O)(=O)O)[C@H](O)[C@H]2OS(=O)(=O)O)[C@H](OS(=O)(=O)O)[C@H]1NS(=O)(=O)O` was 1250 U mg-1.
